{"source": "paper PMC2730762", "about": "(Biochemistry, 2009)", "key": {"PfPM1": {"target": "PfPM1 (Plasmodium falciparum, UniProt Q7KQM4)", "sequence (Q7KQM4 124-452)": "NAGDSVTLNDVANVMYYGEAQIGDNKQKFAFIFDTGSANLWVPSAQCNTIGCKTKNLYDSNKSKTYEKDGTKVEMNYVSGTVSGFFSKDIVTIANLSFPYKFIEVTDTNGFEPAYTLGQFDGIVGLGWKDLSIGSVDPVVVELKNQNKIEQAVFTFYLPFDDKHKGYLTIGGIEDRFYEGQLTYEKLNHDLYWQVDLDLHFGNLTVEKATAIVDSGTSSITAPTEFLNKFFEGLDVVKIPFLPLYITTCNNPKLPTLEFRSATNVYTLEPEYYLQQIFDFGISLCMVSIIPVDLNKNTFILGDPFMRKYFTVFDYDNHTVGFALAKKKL", "assay": "biochemical"}, "[1]": {"target": "naturally-occurring PfPM1", "conditions": "cited from earlier work"}, "[2]": {"tested_on": "cultured P. falciparum parasites", "conditions": "cited from earlier work"}}, "note": "Where a SMILES comes first, the peptide text is derived from it. [ ]: non-standard residue; d: D form. The star is where a group is joined. Sta = CC(C)C[C@H](N)[C@@H](O)CC(=O)O; Isovaleryl = CC(C)CC(=O)*"}
{"compound": "CC(C)CC(=O)N[C@H](C(=O)N[C@H](C(=O)N[C@@H](CC(C)C)[C@@H](O)CC(=O)N[C@@H](C)C(=O)N[C@@H](CC(C)C)[C@@H](O)CC(=O)O)C(C)C)C(C)C", "note": "[pepstatin A] (Isovaleryl-VV[Sta]A[Sta]-OH)", "values": [{"measurement": "Ki", "setting": "PfPM1", "result": "1.4 ± 0.2", "unit": "nM"}, {"measurement": "Ki", "setting": "[1]", "result": 0.7, "unit": "nM"}, {"measurement": "killing of cultured P. falciparum parasites", "setting": "[2]", "result": "kill cultured P. falciparum parasites"}]}
